# Results published in ChEMBL document CHEMBL3351388, “Identification of two novel RET kinase inhibitors through MCR-based drug discovery: design, synthesis and evaluation” (Eur J Med Chem, 2014).
# pIC50: −log10 of the molar value.
# Target: Proto-oncogene tyrosine-protein kinase receptor Ret (Homo sapiens, UniProt P07949)
# Experiment: Inhibition of RET (unknown origin) pre-incubated for 60 mins before substrate addition in presence of 9 uM ATP by microfluidic assay
# Proto-oncogene tyrosine-protein kinase receptor Ret, sequence (P07949 whole entry): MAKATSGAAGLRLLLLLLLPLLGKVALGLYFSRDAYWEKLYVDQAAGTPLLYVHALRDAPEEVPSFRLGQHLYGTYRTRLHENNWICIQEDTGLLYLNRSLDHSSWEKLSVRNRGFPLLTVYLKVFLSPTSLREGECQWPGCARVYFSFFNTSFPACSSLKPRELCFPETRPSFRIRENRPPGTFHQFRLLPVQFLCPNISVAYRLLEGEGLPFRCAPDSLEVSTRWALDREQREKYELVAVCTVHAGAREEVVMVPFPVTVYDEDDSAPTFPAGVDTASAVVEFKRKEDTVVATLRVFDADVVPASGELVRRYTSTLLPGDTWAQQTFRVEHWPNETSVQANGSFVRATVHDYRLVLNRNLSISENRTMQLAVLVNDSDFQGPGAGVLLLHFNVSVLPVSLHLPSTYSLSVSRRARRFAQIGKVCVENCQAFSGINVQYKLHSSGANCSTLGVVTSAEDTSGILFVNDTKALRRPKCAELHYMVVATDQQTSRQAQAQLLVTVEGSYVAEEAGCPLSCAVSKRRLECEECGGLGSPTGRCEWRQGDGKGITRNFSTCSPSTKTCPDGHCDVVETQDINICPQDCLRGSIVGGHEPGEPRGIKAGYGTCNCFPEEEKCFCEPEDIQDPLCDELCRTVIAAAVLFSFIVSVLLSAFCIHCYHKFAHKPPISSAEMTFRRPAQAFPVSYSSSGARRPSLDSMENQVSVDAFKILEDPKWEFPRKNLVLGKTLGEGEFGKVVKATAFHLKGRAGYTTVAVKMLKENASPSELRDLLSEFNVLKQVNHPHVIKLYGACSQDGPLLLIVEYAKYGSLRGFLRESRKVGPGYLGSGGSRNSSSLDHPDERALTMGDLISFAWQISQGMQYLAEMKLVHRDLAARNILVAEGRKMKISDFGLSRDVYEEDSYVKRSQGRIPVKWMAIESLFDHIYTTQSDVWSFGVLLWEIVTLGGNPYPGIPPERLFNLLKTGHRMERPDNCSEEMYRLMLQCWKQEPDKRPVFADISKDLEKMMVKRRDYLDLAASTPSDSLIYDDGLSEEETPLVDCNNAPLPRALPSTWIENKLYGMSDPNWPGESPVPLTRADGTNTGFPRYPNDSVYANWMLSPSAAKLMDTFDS
row,pIC50,SMILES
1,< 4.00,O=C(Cc1ccc(-c2ccc3nccn3c2)cc1)Nc1cccc(Br)c1
2,< 4.00,O=C(Cc1ccc(-c2ccc3nccn3c2)cc1)Nc1cccc(F)c1
3,< 4.00,Cc1cccc(NC(=O)Cc2ccc(-c3ccc4nccn4c3)cc2)c1
